Where two headings read alike, the source gives them in different places.
What was measured:
[1] = tested on: U373 (glioblastoma-astrocytoma); assay: CIMA assay, cell viability, U373; conditions: for Fold change in viability AVG / In vitro activity against cancer cell lines, U373 AVG: U373
Experimental: (§1) Stock solutions of the extracts were prepared in dimethylsulfoxide (DMSO) at 10 mg/mL and stored in 200 μl aliquots at −20° C. until analysis. This preparation ensured that the DMSO delivered to cells in culture never exceeded 1%.
(§2) Prepared extracts were assessed following chronic exposure conditions in which cells were seeded at 2×10^3 cells/well (96 well-plate) and incubated with test compounds for 72 h. Each compound was evaluated over a range of concentrations (0, 10, 25, 50 or 100 μg/ml). Cell proliferation was initially assessed using a standard colorimetric indicator of metabolic activity (CIMA) assay. In this assay, tetrazole reduction was evaluated as a measure of metabolic function that evaluates mitochondrial activity to determine the extent of cell proliferation within a culture. This assay is based on the reduction of yellow tetrazolium salt to purple formazan by mitochondrial reductases enzyme in viable cells, resulting in a color changed that confers a change in absorbance.

[2] = CIMA assay, cell viability, CCD1079SK; conditions: human, Average cell viability, CCD
[3] = tested on: CCD1079SK (fibroblast, noncancerous but proliferating); assay: CIMA assay, cell viability, CCD1079SK; conditions: CCD
MDA-MB [4] = conditions: MDA-MB
A549 (lung carcinoma) = assay: CIMA assay (colorimetric indicator of metabolic activity), cell viability, A549; conditions: for Fold change in viability AVG / In vitro activity against cancer cell lines, A549 AVG: A549
Experimental: as §1, §2

MDA-MB [5] = assay: cells; conditions: Homo sapiens, read-out: Average cell viability, MDA-MB; for viability at 50 µg/mL: 50 ug/mL; for viability at 100 µg/mL: 100 ug/mL
PC3 = assay: CIMA assay, cell viability, PC3; conditions: for Fold change in viability AVG / In vitro activity against cancer cell lines, PC3 AVG: PC3
[6] = tested on: THP-1 (acute monocytic leukemia); assay: CIMA assay, cell viability, THP-1; conditions: for Fold change in viability AVG / In vitro activity against cancer cell lines, THP-1 AVG: THP-1
[7] = tested on: SKOV3 (ovarian adenocarcinoma); assay: CIMA assay, cell viability, SKOV3; conditions: for Fold change in viability AVG / In vitro activity against cancer cell lines, SKOV AVG: SKOV
[8] = Homo sapiens, U373 MG, read-out: Average cell viability, U373, 50 ug/mL
[9] = Homo sapiens, U373 MG, read-out: Average cell viability, U373, 100 ug/mL
[10] = CCD1079SK fibroblasts (noncancerous, proliferating)
[11] = Homo sapiens, A549, read-out: Average cell viability, A549, 50 ug/mL
[12] = Homo sapiens, A549, read-out: Average cell viability, A549, 100 ug/mL
[13] = Homo sapiens, PC-3, read-out: Average cell viability, PC3, 50 ug/mL
[14] = Homo sapiens, PC-3, read-out: Average cell viability, PC3, 100 ug/mL
[15] = Homo sapiens, THP-1, read-out: Average cell viability, THP-1, 50 ug/mL
[16] = Homo sapiens, THP-1, read-out: Average cell viability, THP-1, 100 ug/mL
[17] = Homo sapiens, SK-OV-3, read-out: Average cell viability, SKOV, 50 ug/mL
[18] = Homo sapiens, SK-OV-3, read-out: Average cell viability, SKOV, 100 ug/mL

CC/C=C\C/C=C\C/C=C\C/C=C\C/C=C\CCCC(=O)OCC(O)COC1OC(CO)C(O)C(O)C1O (centres unmarked) [Compound 13, lyso-MGDG C20:5]
viability at 1 µg/mL ([1]; Homo sapiens, U373 MG, read-out: Average cell viability, U373, 1 ug/mL): 111%
viability at 10 µg/mL ([1]; Homo sapiens, U373 MG, read-out: Average cell viability, U373, 10 ug/mL): 100%
viability at 50 µg/mL [1, 8]: 7%
viability at 100 µg/mL [1, 9]: 6%
U373 AVG ([1]; U373, sample at 1 ug/mL): 1.13
U373 AVG ([1]; U373, sample at 10 ug/mL): 1.02
U373 AVG ([1]; U373, sample at 50 ug/mL): 0.07
U373 AVG ([1]; U373, sample at 100 ug/mL): 0.06
Fold change in viability AVG ([1]; 1 ug/mL): 1.13
Fold change in viability AVG ([1]; 10 ug/mL): 1.02
Fold change in viability AVG ([1]; 50 ug/mL): 0.07
Fold change in viability AVG ([1]; 100 ug/mL): 0.06
viability at 72 h, 1 ug/mL ([2]; CCD1079SK fibroblast cells (noncancerous, proliferating), 1 ug/mL): 103%
viability at 72 h, 10 ug/mL ([2]; CCD1079SK fibroblasts (noncancerous, proliferating), 10 ug/mL): 99%
viability at 72 h, 50 ug/mL [2, 10]: 22%
viability at 72 h, 100 ug/mL [2, 10]: 14%
Fold change in viability AVG ([3]; 1 ug/mL): 1.13
Fold change in viability AVG ([3]; 10 ug/mL): 1.09
Fold change in viability AVG ([3]; 50 ug/mL): 0.24
Fold change in viability AVG ([3]; 100 ug/mL): 0.15
MDA-MB AVG (MDA-MB [4]; sample at 1 ug/mL): 1.11
MDA-MB AVG (MDA-MB [4]; sample at 10 ug/mL): 1.14
MDA-MB AVG (MDA-MB [4]; sample at 50 ug/mL): 0.33
MDA-MB AVG (MDA-MB [4]; sample at 100 ug/mL): 0.28
Fold change in viability AVG (MDA-MB [4]; 1 ug/mL): 1.11
Fold change in viability AVG (MDA-MB [4]; 10 ug/mL): 1.14
Fold change in viability AVG (MDA-MB [4]; 50 ug/mL): 0.33
Fold change in viability AVG (MDA-MB [4]; 100 ug/mL): 0.28
A549 AVG (A549 (lung carcinoma); A549, sample at 1 ug/mL): 0.67
A549 AVG (A549 (lung carcinoma); A549, sample at 10 ug/mL): 0.64
A549 AVG (A549 (lung carcinoma); A549, sample at 50 ug/mL): 0.67
A549 AVG (A549 (lung carcinoma); A549, sample at 100 ug/mL): 0.38
Fold change in viability AVG (A549 (lung carcinoma); 1 ug/mL): 0.67
Fold change in viability AVG (A549 (lung carcinoma); 10 ug/mL): 0.64
Fold change in viability AVG (A549 (lung carcinoma); 50 ug/mL): 0.67
Fold change in viability AVG (A549 (lung carcinoma); 100 ug/mL): 0.38
viability at 1 µg/mL (A549 (lung carcinoma); Homo sapiens, A549, read-out: Average cell viability, A549, 1 ug/mL): 57%
viability at 10 µg/mL (A549 (lung carcinoma); Homo sapiens, A549, read-out: Average cell viability, A549, 10 ug/mL): 55%
viability at 50 µg/mL (A549 (lung carcinoma); [11]): 57%
viability at 100 µg/mL (A549 (lung carcinoma); [12]): 32%
viability at 1 µg/mL (MDA-MB [5]; 1 ug/mL): 102%
viability at 10 µg/mL (MDA-MB [5]; 10 ug/mL): 105%
viability at 50 µg/mL (MDA-MB [5]): 30%
viability at 100 µg/mL (MDA-MB [5]): 25%
viability at 1 µg/mL (PC3; Homo sapiens, PC-3, read-out: Average cell viability, PC3, 1 ug/mL): 104%
viability at 10 µg/mL (PC3; Homo sapiens, PC-3, read-out: Average cell viability, PC3, 10 ug/mL): 97%
viability at 50 µg/mL (PC3; [13]): 16%
viability at 100 µg/mL (PC3; [14]): 12%
PC3 AVG (PC3; PC3, sample at 1 ug/mL): 1.08
PC3 AVG (PC3; PC3, sample at 10 ug/mL): 1.01
PC3 AVG (PC3; PC3, sample at 50 ug/mL): 0.16
PC3 AVG (PC3; PC3, sample at 100 ug/mL): 0.12
Fold change in viability AVG (PC3; 1 ug/mL): 1.08
Fold change in viability AVG (PC3; 10 ug/mL): 1.01
Fold change in viability AVG (PC3; 50 ug/mL): 0.16
Fold change in viability AVG (PC3; 100 ug/mL): 0.12
viability at 1 µg/mL ([6]; Homo sapiens, THP-1, read-out: Average cell viability, THP-1, 1 ug/mL): 104%
viability at 10 µg/mL ([6]; Homo sapiens, THP-1, read-out: Average cell viability, THP-1, 10 ug/mL): 101%
viability at 50 µg/mL [6, 15]: 40%
viability at 100 µg/mL [6, 16]: 27%
THP-1 AVG ([6]; THP-1, sample at 1 ug/mL): 1.19
THP-1 AVG ([6]; THP-1, sample at 10 ug/mL): 1.14
THP-1 AVG ([6]; THP-1, sample at 50 ug/mL): 0.46
THP-1 AVG ([6]; THP-1, sample at 100 ug/mL): 0.31
Fold change in viability AVG ([6]; 1 ug/mL): 1.19
Fold change in viability AVG ([6]; 10 ug/mL): 1.14
Fold change in viability AVG ([6]; 50 ug/mL): 0.46
Fold change in viability AVG ([6]; 100 ug/mL): 0.31
viability at 1 µg/mL ([7]; Homo sapiens, SK-OV-3, read-out: Average cell viability, SKOV, 1 ug/mL): 125%
viability at 10 µg/mL ([7]; Homo sapiens, SK-OV-3, read-out: Average cell viability, SKOV, 10 ug/mL): 105%
viability at 50 µg/mL [7, 17]: 78%
viability at 100 µg/mL [7, 18]: 34%
Fold change in viability AVG ([7]; 1 ug/mL): 1.34
Fold change in viability AVG ([7]; 10 ug/mL): 1.13
Fold change in viability AVG ([7]; 50 ug/mL): 0.84
Fold change in viability AVG ([7]; 100 ug/mL): 0.37

CCCCCCCCCCCCCCCC(=O)OCC(O)CO (centres unmarked) [77-38-41-1 B, MAG (C16:0)]
viability at 50 µg/mL [1, 8]: 13%
viability at 100 µg/mL [1, 9]: 7%
Fold change in viability AVG ([1]; 50 ug/mL): 0.13
In vitro activity against cancer cell lines, U373 AVG ([1]; 50 ug/mL): 0.13
Fold change in viability AVG ([1]; 100 ug/mL): 0.07
In vitro activity against cancer cell lines, U373 AVG ([1]; 100 ug/mL): 0.07
viability at 72 h, 50 ug/mL [2, 10]: 78%
viability at 72 h, 100 ug/mL [2, 10]: 72%
Fold change in viability AVG ([3]; 50 ug/mL): 0.85
Fold change in viability AVG ([3]; 100 ug/mL): 0.79
Fold change in viability AVG (MDA-MB [4]; 50 ug/mL): 0.70
In vitro activity against cancer cell lines, MDA-MB AVG (MDA-MB [4]; 50 ug/mL): 0.70
Fold change in viability AVG (MDA-MB [4]; 100 ug/mL): 0.30
In vitro activity against cancer cell lines, MDA-MB AVG (MDA-MB [4]; 100 ug/mL): 0.30
Fold change in viability AVG (A549 (lung carcinoma); 50 ug/mL): 0.81
In vitro activity against cancer cell lines, A549 AVG (A549 (lung carcinoma); 50 ug/mL): 0.81
Fold change in viability AVG (A549 (lung carcinoma); 100 ug/mL): 0.30
In vitro activity against cancer cell lines, A549 AVG (A549 (lung carcinoma); 100 ug/mL): 0.30
viability at 50 µg/mL (A549 (lung carcinoma); [11]): 69%
viability at 100 µg/mL (A549 (lung carcinoma); [12]): 26%
viability at 50 µg/mL (MDA-MB [5]): 64%
viability at 100 µg/mL (MDA-MB [5]): 28%
viability at 50 µg/mL (PC3; [13]): 52%
viability at 100 µg/mL (PC3; [14]): 15%
Fold change in viability AVG (PC3; 50 ug/mL): 0.54
In vitro activity against cancer cell lines, PC3 AVG (PC3; 50 ug/mL): 0.54
Fold change in viability AVG (PC3; 100 ug/mL): 0.16
In vitro activity against cancer cell lines, PC3 AVG (PC3; 100 ug/mL): 0.16
viability at 50 µg/mL [6, 15]: 96%
viability at 100 µg/mL [6, 16]: 105%
Fold change in viability AVG ([6]; 50 ug/mL): 1.10
In vitro activity against cancer cell lines, THP-1 AVG ([6]; 50 ug/mL): 1.10
Fold change in viability AVG ([6]; 100 ug/mL): 1.19
In vitro activity against cancer cell lines, THP-1 AVG ([6]; 100 ug/mL): 1.19
viability at 50 µg/mL [7, 17]: 52%
viability at 100 µg/mL [7, 18]: 22%
Fold change in viability AVG ([7]; 50 ug/mL): 0.56
In vitro activity against cancer cell lines, SKOV AVG ([7]; 50 ug/mL): 0.56
Fold change in viability AVG ([7]; 100 ug/mL): 0.24
In vitro activity against cancer cell lines, SKOV AVG ([7]; 100 ug/mL): 0.24

From US11292807B2 (OCEANS LTD., priority 2015, dated 2022)
